{
  "source": "patent US6569631B1",
  "about": "“Microplate thermal shift assay for ligand development using 5-(4″dimethylaminophenyl)-2-(4′-phenyl)oxazole derivative fluorescent dyes” (3-Dimensional Pharmaceuticals, Inc., priority 1998, dated 2003)",
  "key": {"D(II) FGF receptor 1": {"system": "D(II) FGF receptor 1", "assay": "Microplate thermal shift screen of biochemical conditions, D(II) FGF receptor 1 stability", "set-up": "species or system human", "details": "NaCl concentration increased from 0.1 to 0.5 M", "procedure": "The microplate thermal shift assay was used to simultaneously screen the effects of multiple biochemical conditions on D(II) FGF receptor 1 stability. The assays were performed by mixing 1 μL of D(II) FGFR1 (from a 500 μM concentrated stock in 50 mM HEPES pH 7.5) with 4 μL of each biochemical condition in wells of a 96-well polycarbonate microtiter plate. Final protein concentration after mixing was 100 μM and final 1,8-ANS concentration was 200 μM. Biochemical conditions were tested as follows: The pH's tested were 5 (Na acetate), 6 (MES), 7 (MOPS), 8 (HEPES), and 9 (CHES), with final buffer concentrations of 50 mM.\nThe salt concentrations tested were 0.1 or 0.5 M NaCl. Additives were tested in 50 mM MOPS, pH 7, 0.1 M NaCl, at final concentrations of 1 mM (EDTA, dithiothreitol), 10 mM (CaCl2, MgCl2, MgSO4, NiSO4),50 mM (arginine), 100 mM ((NH4)2SO4, LiSO4, Na2SO4, ZnSO4), 5% w/v (polyethylene glycol 6000), and 10% v/v glycerol.\nThermal denaturation profiles were generated as previously described for thrombin, aFGF, Factor D, and Factor Xa, by incremental heating of the microplate followed by a fluorescence reading after each temperature increase. Data were analyzed by non-linear least squares fitting as described previously."}, "human α-thrombin": {"molecular_target": "T1, human α-thrombin (Homo sapiens, UniProt P00734)", "T1 construct": "A stock human α-thrombin solution (1.56 mg/mL) from Enzyme Research Labs; purchased Enzyme Research Labs", "assay": "Microplate thermal shift screen of biochemical conditions, thrombin stability", "details": "NaCl concentration increased from 0 to 0.5 M", "procedure": "The microplate thermal shift assay was used, with four different fluorophores, to simultaneously screen the effects of multiple pH values, sodium chloride concentrations, and reduction-oxidation compounds on human α-thrombin stability. Thrombin solution was diluted to 1 μM in 50 mM Hepes, pH 7.5, NaCl at either 0.1 M or 0.5 M, 10 mM EDTA, 10 mM CaCl2, 10 mM dithiothreitol, […], and 100 μM 1,8-ANS, 10% (v/v) glycerol, or 0.1% (w/v) polyethylene glycol (PEG) 6000. Reaction volume was 100 μL.\nUsing equation (1), it is possible to estimate the NaCl binding to be ˜6 mM near the Tm (53° C.) in 50 mM Hepes pH 8.0 buffer (zero and 0.10 M NaCl)."}, "thrombin [1]": {"molecular_target": "T2, thrombin (Homo sapiens, UniProt P00734)", "details": "5 mM Tris buffer pH 8.0, 0.1% PEG, 25° C.; read-out: Kd of the Na+ binding site; cited from earlier work"}, "D(II) FGFR1": {"molecular_target": "T3, D(II) FGFR1 (Homo sapiens, UniProt P11362)", "T3 construct": "made in house", "T3 sequence (P11362 158-246 limits assumed)": "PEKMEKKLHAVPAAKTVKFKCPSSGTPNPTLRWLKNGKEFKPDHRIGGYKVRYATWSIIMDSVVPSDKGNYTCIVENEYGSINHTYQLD", "assay": "Miniaturized (10 μL) microplate thermal shift assay of D(II) FGFR1", "type": "binding", "details": "aprosulate 300 μM", "procedure": "Recombinant D(II) FGFR1 was purified from inclusion bodies and purified by affinity chromatography on heparin sepharose. A stock solution of D(II) FGFR1 (15 mg/mL; 1.1 mM) was diluted to 50 μM in assay buffer (50 mM Hepes, pH 7.5, 0.1 M NaCl). The assay volume was 10 μL and the concentration of 1,8-ANS was 250 μM."}, "[2]": {"molecular_target": "T4, heparin binding site of human α-thrombin (Homo sapiens, UniProt P00734)", "T4 construct": "A stock human α-thrombin solution (1.56 mg/mL) from Enzyme Research Labs; purchased Enzyme Research Labs", "assay": "Microplate thermal shift assay, ligands binding to the heparin binding site, turbidity signal", "description": "Assays for ligands that bind to the heparin binding site of human α-thrombin are more difficult to perform than assays for ligands that bind to the active site of human α-thrombin. At the heparin binding site, no substrate is hydrolyzed, so no spectrophotometric signal can be amplified for instrumental detection. Heparin activity is usually estimated in biological clotting time assays. […] Thus, heparin binding to human α-thrombin represents the kind of challenge encountered with the vast majority of non-enzyme receptor/ligand binding events, which are commonly observed for hormone/receptor interactions, repressor/DNA interactions, neurotransmitter/receptor interactions, etc. Several heparin-like sulfated oligosaccharides and sulfated naphthalene compounds were assayed by the microplate thermal shift assay. Using the thermal shift assay, it was possible to use a single compound per well to quickly rank the compounds in order of increasing binding affinity, with Kd's ranging over three orders of magnitude (see Table 4). Like the experiment in Example 1, the thermal shift assay results agreed closely with the results obtained through an alternative method, which required a series of laborious (15 to 20 single determinations) fluorescence quench assays over a wide range of concentrations of low MW heparin (Olson, S. T. et al., J. Biol. Chem. 266:6342-6352 (1991))."}, "[3]": {"molecular_target": "T5, acidic fibroblast growth factor (aFGF) (Homo sapiens, UniProt P05230)", "T5 construct": "host or cells: E. coli", "T5 sequence (P05230 whole entry, species assumed)": "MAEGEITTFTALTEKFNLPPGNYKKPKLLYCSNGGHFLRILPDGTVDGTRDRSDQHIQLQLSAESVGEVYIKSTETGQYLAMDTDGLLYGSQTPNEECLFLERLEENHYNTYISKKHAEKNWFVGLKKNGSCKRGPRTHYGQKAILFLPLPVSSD", "assay": "Microplate thermal shift assay for ligands binding to aFGF, turbidity signal", "details": "for ΔTm: relative to aFGF alone (317.15 °K); for Tm: turbidity signal, aFGF 0.25 mg/mL, ligand 47-200 μM", "description": "The second therapeutic receptor tested in the microplate thermal shift assay was acidic fibroblast growth factor (aFGF), a growth factor that plays a key role in angiogenesis (Folkman, J. et al., J. Biol. Chem. 267:1.0931-10934 (1992)). A synthetic gene for this protein was purchased from R&D Systems (Minneapolis, Minn.), and was cloned and expressed in E. coli using methods similar to those described for basic fibroblast growth factor (bFGF) (Thompson, L. D. et al., Biochemistry 33:3831-3840 (1994); Pantoliano, M. W. et al., Biochemistry 33:10229-10248 (1994); Springer, B. A. et al., J. Biol. Chem. 269:26879-26884 (1994)). Recombinant aFGF was then purified by heparin-sepharose affinity chromatography as described (Thompson, L. D. et al., Biochemistry 33:3831-3840 (1994)). aFGF is also known to bind heparin/heparan, which is a cofactor for mitogenic activity. […] A microplate thermal assay of these compounds was set up in a way similar to that described above for human α-thrombin. […] The affinity constants covered a fairly broad range of binding affinities, with pentosan PSO4 showing the highest affinity."}, "[4]": {"molecular_target": "T6, chicken muscle pyruvate kinase (Gallus gallus, UniProt P00548)", "T6 construct": "purchased Sigma Chemical Co. P6406", "T6 sequence (P00548 whole entry)": "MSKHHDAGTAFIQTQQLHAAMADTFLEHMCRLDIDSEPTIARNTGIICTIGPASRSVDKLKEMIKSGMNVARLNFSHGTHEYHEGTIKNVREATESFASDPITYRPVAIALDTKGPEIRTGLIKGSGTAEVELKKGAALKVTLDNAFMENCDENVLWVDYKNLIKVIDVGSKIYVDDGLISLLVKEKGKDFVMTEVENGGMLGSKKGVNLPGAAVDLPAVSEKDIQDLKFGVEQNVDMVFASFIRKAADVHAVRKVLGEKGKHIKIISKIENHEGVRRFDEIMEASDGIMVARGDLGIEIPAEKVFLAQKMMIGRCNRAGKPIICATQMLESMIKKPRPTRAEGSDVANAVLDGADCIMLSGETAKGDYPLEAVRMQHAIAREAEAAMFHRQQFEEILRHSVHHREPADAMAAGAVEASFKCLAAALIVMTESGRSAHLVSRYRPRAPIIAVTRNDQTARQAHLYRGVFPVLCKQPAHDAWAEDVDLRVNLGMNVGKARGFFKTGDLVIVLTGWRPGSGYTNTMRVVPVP", "assay": "Fluorescence signal of reporter dyes on thermal unfolding of pyruvate kinase", "details": "wavelengths above 480 nm; excitation 370 nm", "procedure": "A 0.2 mg/mL solution of chicken muscle pyruvate kinase (Sigma Chemical Co., catalog # P6406) was incubated with either 10 mM 1-anilinonaph-thalene-8-sulfonate (1,8-ANS) (FIG. 44, open squares) or 10 mM 5-(4″-dimethylaminophenyl)-2-(4′-phenyl)oxazole sulfonate (Molecular Probes catalogue no. D-12800) (FIG. 44, closed squares) in a 500 μL four-sided quartz cuvette. Fluorescence spectra were recorded using a spectrofluorimeter (Florolog, SPEX/ISA), with the excitation monochromator set to 370 nm, and the excitation and emission bandpass slit widths set at 1 nm, The instrument was operated in front-face collection mode, so that fluorescence was collected from the same face of the cuvette that was illuminated by the exciting light source. Emission spectra of native protein+dye were recorded after mixing the protein and dye solutions at room temperature. Emission spectra of denatured protein and fluorescence dye were recorded after the protein/dye solutions were heated to 75° C. for 2 minutes, and then cooled to room temperature immediately prior to data collection. The spectra shown in FIG. 44 are difference spectra that were calculated by subtracting the native protein fluorescence from the denatured protein fluorescence for each dye at 25° C. […]"}, "thrombin [5]": {"molecular_target": "T2, thrombin", "assay": "Fluorescence signal of reporter dyes in 384-well thermal unfolding of thrombin", "set-up": "A stock human α-thrombin solution (1.56 mg/mL) from Enzyme Research Labs; purchased Enzyme Research Labs", "details": "100 μM dye; 1 μM thrombin; 500+/−25 nm bandpass filter", "procedure": "A 1 μM thrombin solution was mixed with 5-(4″-dimethylaminophenyl)-2-(4′-phenyl)oxazole sulfonate dye to yield a final concentration of 100 μM 5-(4″-dimethylaminophenyl)-2-(4′-phenyl)oxazole sulfonate. This solution was pipetted into all the wells of a 384-well black thermocycler plate with a final volume of 4 μL per well, and 3 μL of mineral oil was then added to each well. The fluorescence signal from each well was recorded in a closed, black-walld metal box using a cooled CCD camera (SenSys, Photometrix, Inc.) equipped with a 500+/−25 nm bandpass filter. An identical experiment was performed separately, using the same instrument, camera, and filters, except that a final concentration of 100 μM 1,8-ANS was used in place of 5-(4″-dimethylaminophenyl)-2-(4′-phenyl)oxazole sulfonate as the reporter dye.\nThe ratio of signals from 5-(4″-dimethylaminophenyl)-2-(4′-phenyl)oxazole sulfonate and 1,8-ANS was calculated by averaging the signals of all 384 wells on each plate, and dividing the average signal from 1,8-ANS into that for 5-(4″-dimethylaminophenyl)-2-(4′-phenyl)oxazole sulfonate."}, "[6]": {"system": "human urokinase-type plasminogen activator (u-PA)", "assay": "Miniaturized microplate thermal shift assay of urokinase", "type": "binding", "details": "5 μL; MOPS pH 7, NaCl, 1,8-ANS", "description": "Another target molecule analyzed was human urokinase-type plasminogen activator (u-PA). U-PA enzymatically converts plasminogen into the active protease plasmin. U-PA is involved in tissue remodeling, cellular migration and metastases. The gene for u-PA was obtained from ATCC (Rockville, Md.) and modified to appropriately express active enzyme in E. coli. u-PA was cloned, overexpressed in E. coli, and purified using procedures similar to those described by Winkler et al. (Biochemistry 25:4041-4045 (1986)). […] The experiment was performed in the miniaturized format in 5 μL well volume. One μL of concentrated CMK-u-PA (13 g/L, 371.4 μM) was added to 4 μL of 62.5 mM MOPS, pH 7, 125 mM NaCl, and 250 μM 1,8-ANS, in multiple wells of a 96-well polycarbonate V-bottom microtiter plate. A thermal denaturation curve was generated as previously described for thrombin, aFGF, D(II)FGFR1, Factor D, and Factor Xa, by incremental heating of the microplate followed by a fluorescence reading after each temperature increase."}},
  "note": "Like-named read-outs stand apart in the source and are kept apart here. Ends that are not written are not given here.",
  "data": [
    {"molecule": "[Cl-].[Na+]", "note": "[NaCl, sodium chloride]", "values": [
      {"measurement": "ΔTm", "setting": "D(II) FGF receptor 1", "value": "about 5 °C"},
      {"measurement": "ΔTm", "setting": "human α-thrombin", "value": "about 12 °C"}
    ]},
    {"molecule": "[Na+]", "note": "[Na^+]", "values": [
      {"measurement": "Kd", "setting": "thrombin [1]", "value": "30000 ± 3000", "unit": "µM"}
    ]},
    {"molecule": "O=C(NCCCNC(=O)[C@H](OS(=O)(=O)O)[C@@H](OS(=O)(=O)O)[C@H](O[C@@H]1O[C@H](COS(=O)(=O)O)[C@H](OS(=O)(=O)O)[C@H](OS(=O)(=O)O)[C@H]1OS(=O)(=O)O)[C@@H](COS(=O)(=O)O)OS(=O)(=O)O)[C@H](OS(=O)(=O)O)[C@@H](OS(=O)(=O)O)[C@H](O[C@@H]1O[C@H](COS(=O)(=O)O)[C@H](OS(=O)(=O)O)[C@H](OS(=O)(=O)O)[C@H]1OS(=O)(=O)O)[C@@H](COS(=O)(=O)O)OS(=O)(=O)O", "note": "[aprosulate]", "values": [
      {"measurement": "unfolding transition (Tm) in the presence of ligand", "setting": "D(II) FGFR1", "value": "about 320 K"},
      {"measurement": "increase of the unfolding transition", "setting": "D(II) FGFR1; D(II) FGFR1 50 μM, 10 μL", "value": "about 8 K"}
    ]},
    {"molecule": "Cc1ccc(C(=O)Nc2ccc(S(=O)(=O)O)c3cc(S(=O)(=O)O)cc(S(=O)(=O)O)c23)cc1NC(=O)c1cccc(NC(=O)Nc2cccc(C(=O)Nc3cc(C(=O)Nc4ccc(S(=O)(=O)O)c5cc(S(=O)(=O)O)cc(S(=O)(=O)O)c45)ccc3C)c2)c1", "note": "[Suramin, suramin]", "values": [
      {"measurement": "ΔTm", "setting": "[2]; relative to thrombin alone (329.15 °K)", "value": 11.0, "unit": "°K"},
      {"measurement": "affinity at Tm higher than the affinity of heparin 5000", "setting": "[2]; thermal shift assay, Table 4", "value": 5700, "unit": "fold"},
      {"measurement": "Tm", "setting": "[2]; turbidity signal, 11 μM thrombin, ligand 40-102 μM", "value": 340.15, "unit": "°K"},
      {"measurement": "ΔTm", "setting": "[3]", "value": 13.0, "unit": "°K"},
      {"measurement": "Tm", "setting": "[3]", "value": 330.15, "unit": "°K"}
    ]},
    {"molecule": "EEEEEEEE", "values": [
      {"measurement": "Kd", "setting": "[3]; equation (1), estimated ΔHu 60.0 kcal/mole, ΔCpu 0.95 kcal/mole-°K, read-out: Kd at Tm", "value": 10.1, "unit": "µM"},
      {"measurement": "Kd", "setting": "[3]; estimate by equation (3), ΔHL −10.0 kcal/mole, read-out: Kd at 298° K Observed", "value": 3.04, "unit": "µM"},
      {"measurement": "ΔTm", "setting": "[3]", "value": 5.0, "unit": "°K"},
      {"measurement": "Tm", "setting": "[3]", "value": 322.15, "unit": "°K"}
    ]},
    {"molecule": "CN(C)c1ccc(-c2cnc(-c3ccc(S(=O)(=O)O)cc3)o2)cc1", "note": "[5-(4″-dimethylaminophenyl)-2-(4′-phenyl)oxazole sulfonate]", "values": [
      {"measurement": "fluorescence signal relative to 1,8-ANS on unfolding of pyruvate kinase", "setting": "[4]", "value": "approximately 3.2 fold"},
      {"measurement": "signal relative to 1,8-ANS, average of 384 wells", "setting": "thrombin [5]", "value": 4.25, "unit": "times"}
    ]},
    {"molecule": "glu-gly-arg-chloromethylketone [CMK]", "values": [
      {"measurement": "Tm of the CMK-u-PA complex", "setting": "[6]", "value": 81, "unit": "°C"}
    ]}
  ]
}
